# In ChEMBL document CHEMBL1201862, “PubChem BioAssay data set” (2004):
#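 Where inhibition never reached the appropriate level, the endpoint shown equals the highest concentration tested. Otherwise, values were interpolated linearly from a five-concentration, 48-hour dose response in 96-well plates. GI50 marks 50% less growth.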 Activity calls are given as the source filed them. No stated cut-off is given here; in the data, active = GI50 up to about 1.1 µM and inactive = higher.
# Tests used:
# Experiment in all cases: NCI anticancer screen, dose series, 48 h
# 786-0 = test system: 786-0
# A498 = test system: A498
# A549 = test system: A549
# ACHN = test system: ACHN
# BT-549 = test system: BT-549
# CAKI-1 = test system: CAKI-1
# CCRF-CEM = test system: CCRF-CEM
# COLO 205 = test system: COLO 205
# DU-145 = test system: DU-145
# HCC 2998 = test system: HCC 2998
# HCT-116 = test system: HCT-116
# HCT-15 = test system: HCT-15
# HL-60 = test system: HL-60
# HOP-92 = test system: HOP-92
# HT-29 = test system: HT-29
# IGROV-1 = test system: IGROV-1
# K562 = test system: K562
# KM12 = test system: KM12
# M14 = test system: M14
# MCF7 = test system: MCF7
# MDA-MB-231 = test system: MDA-MB-231
# MDA-MB-435 = test system: MDA-MB-435
# MDA-N = test system: MDA-N
# MOLT-4 = test system: MOLT-4
# Malme-3M = test system: Malme-3M
# NCI-H226 = test system: NCI-H226
# NCI-H23 = test system: NCI-H23
# NCI-H460 = test system: NCI-H460
# NCI-H522 = test system: NCI-H522
# NCI/ADR-RES = test system: NCI/ADR-RES
# OVCAR-3 = test system: OVCAR-3
# OVCAR-4 = test system: OVCAR-4
# OVCAR-5 = test system: OVCAR-5
# OVCAR-8 = test system: OVCAR-8
# PC-3 = test system: PC-3
# RPMI-8226 = test system: RPMI-8226
# RXF 393 = test system: RXF 393
# SF-268 = test system: SF-268
# SF-295 = test system: SF-295
# SF-539 = test system: SF-539
# SK-MEL-28 = test system: SK-MEL-28
# SK-MEL-2 = test system: SK-MEL-2
# SK-MEL-5 = test system: SK-MEL-5
# SN12C = test system: SN12C
# SNB-19 = test system: SNB-19
# SNB-75 = test system: SNB-75
# SR = test system: SR
# SW-620 = test system: SW-620
# T47D = test system: T47D
# TK-10 = test system: TK-10
# U-251 = test system: U-251
# UACC-257 = test system: UACC-257
# UACC-62 = test system: UACC-62
# UO-31 = test system: UO-31
# EKVX = test system: EKVX
# HOP-62 = test system: HOP-62
# LOX IMVI = test system: LOX IMVI
# SK-OV-3 = test system: SK-OV-3
# Hs-578T = test system: Hs-578T
smiles,measurement,setting,value
CC(C(N)=O)N(C)C(=O)c1cnc2ccccc2c1 (stereo unspecified),GI50,786-0,> 100 µM (inactive)
same,GI50,A498,> 100 µM (inactive)
same,GI50,A549,> 100 µM (inactive)
same,GI50,ACHN,> 100 µM (inactive)
same,GI50,BT-549,> 100 µM (inactive)
same,GI50,CAKI-1,> 100 µM (inactive)
same,GI50,CCRF-CEM,> 100 µM (inactive)
same,GI50,COLO 205,> 100 µM (inactive)
same,GI50,DU-145,> 100 µM (inactive)
same,GI50,HCC 2998,> 100 µM (inactive)
same,GI50,HCT-116,> 100 µM (inactive)
same,GI50,HCT-15,> 100 µM
same,GI50,HL-60,> 100 µM (inactive)
same,GI50,HOP-92,> 100 µM (inactive)
same,GI50,HT-29,> 100 µM (inactive)
same,GI50,IGROV-1,> 100 µM (inactive)
same,GI50,K562,17 µM (inactive)
same,GI50,KM12,> 100 µM (inactive)
same,GI50,M14,> 100 µM (inactive)
same,GI50,MCF7,> 100 µM (inactive)
same,GI50,MDA-MB-231,> 100 µM (inactive)
same,GI50,MDA-MB-435,> 100 µM (inactive)
same,GI50,MDA-N,> 100 µM (inactive)
same,GI50,MOLT-4,> 100 µM (inactive)
same,GI50,Malme-3M,> 100 µM (inactive)
same,GI50,NCI-H226,> 100 µM (inactive)
same,GI50,NCI-H23,> 10 µM (inactive)
same,GI50,NCI-H460,> 100 µM (inactive)
same,GI50,NCI-H522,> 100 µM (inactive)
same,GI50,NCI/ADR-RES,> 100 µM (inactive)
same,GI50,OVCAR-3,> 100 µM (inactive)
same,GI50,OVCAR-4,> 100 µM (inactive)
same,GI50,OVCAR-5,> 100 µM (inactive)
same,GI50,OVCAR-8,> 100 µM (inactive)
same,GI50,PC-3,> 100 µM (inactive)
same,GI50,RPMI-8226,> 100 µM (inactive)
same,GI50,RXF 393,> 100 µM (inactive)
same,GI50,SF-268,> 10 µM (inactive)
same,GI50,SF-295,> 100 µM (inactive)
same,GI50,SF-539,> 100 µM (inactive)
same,GI50,SK-MEL-28,> 100 µM (inactive)
same,GI50,SK-MEL-2,> 100 µM (inactive)
same,GI50,SK-MEL-5,> 100 µM (inactive)
same,GI50,SN12C,> 100 µM (inactive)
same,GI50,SNB-19,> 100 µM (inactive)
same,GI50,SNB-75,> 100 µM (inactive)
same,GI50,SR,> 100 µM (inactive)
same,GI50,SW-620,> 100 µM (inactive)
same,GI50,T47D,> 100 µM (inactive)
same,GI50,TK-10,> 100 µM (inactive)
same,GI50,U-251,> 100 µM (inactive)
same,GI50,UACC-257,> 100 µM (inactive)
same,GI50,UACC-62,> 100 µM (inactive)
same,GI50,UO-31,> 100 µM (inactive)
CC(C)Oc1ccc2c(c1)OCC1Cc3ccccc3OC21 (stereo unspecified),GI50,786-0,> 100 µM (inactive)
same,GI50,A498,> 100 µM (inactive)
same,GI50,A549,> 100 µM (inactive)
same,GI50,BT-549,58.2 µM (inactive)
same,GI50,CAKI-1,> 100 µM (inactive)
same,GI50,CCRF-CEM,> 100 µM (inactive)
same,GI50,COLO 205,> 10 µM (inactive)
same,GI50,DU-145,> 100 µM (inactive)
same,GI50,EKVX,75.9 µM (inactive)
same,GI50,HCC 2998,96.8 µM (inactive)
same,GI50,HCT-116,> 100 µM (inactive)
same,GI50,HCT-15,18.3 µM
same,GI50,HL-60,> 100 µM (inactive)
same,GI50,HOP-62,> 100 µM (inactive)
same,GI50,HOP-92,> 100 µM (inactive)
same,GI50,HT-29,41.4 µM (inactive)
same,GI50,IGROV-1,> 100 µM (inactive)
same,GI50,K562,88.1 µM (inactive)
same,GI50,KM12,> 100 µM (inactive)
same,GI50,LOX IMVI,> 100 µM (inactive)
same,GI50,M14,> 100 µM (inactive)
same,GI50,MCF7,46.8 µM (inactive)
same,GI50,MDA-MB-231,> 100 µM (inactive)
same,GI50,MDA-MB-435,63.2 µM (inactive)
same,GI50,MDA-N,49.2 µM (inactive)
same,GI50,MOLT-4,36.2 µM (inactive)
same,GI50,Malme-3M,> 100 µM (inactive)
same,GI50,NCI-H226,> 100 µM (inactive)
same,GI50,NCI-H23,89.9 µM (inactive)
same,GI50,NCI-H522,79.1 µM (inactive)
same,GI50,NCI/ADR-RES,71.9 µM (inactive)
same,GI50,OVCAR-3,> 100 µM (inactive)
same,GI50,OVCAR-5,> 100 µM (inactive)
same,GI50,OVCAR-8,> 100 µM (inactive)
same,GI50,PC-3,> 100 µM (inactive)
same,GI50,RPMI-8226,52.8 µM (inactive)
same,GI50,SF-268,> 100 µM (inactive)
same,GI50,SF-295,63.2 µM (inactive)
same,GI50,SF-539,> 100 µM (inactive)
same,GI50,SK-MEL-2,> 100 µM (inactive)
same,GI50,SK-MEL-5,23 µM (inactive)
same,GI50,SK-OV-3,> 100 µM (inactive)
same,GI50,SN12C,> 100 µM (inactive)
same,GI50,SR,> 100 µM (inactive)
same,GI50,SW-620,> 100 µM (inactive)
same,GI50,T47D,55.2 µM (inactive)
same,GI50,TK-10,51.3 µM (inactive)
same,GI50,U-251,> 100 µM (inactive)
same,GI50,UACC-257,33.7 µM (inactive)
same,GI50,UACC-62,> 100 µM (inactive)
same,GI50,UO-31,> 100 µM (inactive)
CC1=NN(c2cccc(Cl)c2)C2(C1=Cc1ccc(O)cc1)C(Cl)C(=O)N2c1nc2ccccc2s1 (stereo unspecified),GI50,786-0,24.3 µM (inactive)
same,GI50,A498,13.6 µM (inactive)
same,GI50,ACHN,19.7 µM (inactive)
same,GI50,CAKI-1,27.1 µM (inactive)
same,GI50,CCRF-CEM,28.6 µM (inactive)
same,GI50,DU-145,21.5 µM (inactive)
same,GI50,EKVX,29.4 µM (inactive)
same,GI50,HCC 2998,18.8 µM (inactive)
same,GI50,HCT-116,15.9 µM (inactive)
same,GI50,HCT-15,15.5 µM
same,GI50,HL-60,26.4 µM (inactive)
same,GI50,HOP-62,20.9 µM (inactive)
same,GI50,HOP-92,15.1 µM (inactive)
same,GI50,HT-29,21.7 µM (inactive)
same,GI50,Hs-578T,40.6 µM (inactive)
same,GI50,IGROV-1,14.1 µM (inactive)
same,GI50,K562,18.6 µM (inactive)
same,GI50,KM12,22.4 µM (inactive)
same,GI50,LOX IMVI,22.1 µM (inactive)
same,GI50,M14,24.7 µM (inactive)
same,GI50,MCF7,17.8 µM (inactive)
same,GI50,MDA-MB-231,24.6 µM (inactive)
same,GI50,MDA-MB-435,25.1 µM (inactive)
same,GI50,MDA-N,23.3 µM (inactive)
same,GI50,MOLT-4,14.2 µM (inactive)
same,GI50,NCI-H226,27.2 µM (inactive)
same,GI50,NCI-H23,16 µM (inactive)
same,GI50,NCI-H460,24.9 µM (inactive)
same,GI50,NCI-H522,22.2 µM (inactive)
same,GI50,NCI/ADR-RES,21.4 µM (inactive)
same,GI50,OVCAR-3,26 µM (inactive)
same,GI50,OVCAR-4,22.6 µM (inactive)
same,GI50,OVCAR-5,29.4 µM (inactive)
same,GI50,OVCAR-8,27 µM (inactive)
same,GI50,PC-3,19.4 µM (inactive)
same,GI50,RPMI-8226,17.5 µM (inactive)
same,GI50,RXF 393,20.5 µM (inactive)
same,GI50,SF-268,19.6 µM (inactive)
same,GI50,SF-295,21.5 µM (inactive)
same,GI50,SF-539,35.4 µM (inactive)
same,GI50,SK-MEL-28,29 µM (inactive)
same,GI50,SK-MEL-2,20.4 µM (inactive)
same,GI50,SK-MEL-5,16.6 µM (inactive)
same,GI50,SK-OV-3,22.8 µM (inactive)
same,GI50,SR,19.9 µM (inactive)
same,GI50,SW-620,15.4 µM (inactive)
same,GI50,T47D,15.8 µM (inactive)
same,GI50,TK-10,37.7 µM (inactive)
same,GI50,U-251,20 µM (inactive)
same,GI50,UACC-257,25.5 µM (inactive)
same,GI50,UO-31,12.9 µM (inactive)
